This is an account of results in patent US10968203B2, “Pyrimidinyl-pyridyloxy-naphthyl compounds and methods of treating IRE1-related diseases and disorders” (Genentech, Inc., priority 2017, dated 2021).

In this test the test system is XBP1s-luc 293 LUC. The test is described as follows: cellular PD assay, XBP1s-LUC reporter (Example 903). It is filed as cell-based. To be noted: read-out: XBP1s-luc 293 LUC (IC50). The essentials: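 A luciferase fusion, in frame and expressed only when the XBP1 transcript is spliced, served as the readout of cellular IRE1α activity in an XBP1-Luc reporter line.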

Counter-ions that a name gives are not always drawn. Like-named read-outs stand apart in the source and are kept apart here.

On to `Cc1ccc2c(NC(=O)C3(F)CC3)cccc2c1Oc1ncccc1-c1ccnc(N[C@H]2CCCNC2)n1` [Example 155, (S)-1-Fluoro-N-(6-methyl-5-((3-(2-(piperidin-3-ylamino)pyrimidin-4-yl)pyridin-2-yl)oxy)naphthalen-1-yl)cyclopropane-1-carboxamide], for which the 50% inhibitory concentration (IC50) (Table 1) turned out to be 380 nM. Still for that read-out and setting: in the case of `Cc1ccc2c(N[C@H](C)[C@@H](C)O)cccc2c1Oc1ncccc1-c1ccnc(N[C@H]2CCCNC2)n1` [Example 381, anti-3-((6-Methyl-5-((3-(2-(((S)-piperidin-3-yl)amino)pyrimidin-4-yl)pyridin-2-yl)oxy)naphthalen-1-yl)amino)butan-2-ol] it was 403 nM. As to `Cc1ccc2c(NS(=O)(=O)Cc3ccc(C#N)cc3)c(F)ccc2c1Oc1ncccc1-c1ccnc(N[C@H]2CCCNC2)n1` [Example 426, (S)-1-(4-Cyanophenyl)-N-(2-fluoro-6-methyl-5-((3-(2-(piperidin-3-ylamino)pyrimidin-4-yl)pyridin-2-yl)oxy)naphthalen-1-yl)methanesulfonamide hydrochloride], where the note is “Table 2”, the IC50 is 5 nM.

With `Cc1ccc2c(N[C@H]3CCC[C@@H]3O)cccc2c1Oc1ncccc1-c1ccnc(N[C@H]2CCCNC2)n1` (single isomer, unassigned) [Example 396, hydrochloride], for the setting “Table 2”, the IC50 came out at 270 nM. The same measure, in the same setting: in the case of `Cc1ccc2c(NC[C@@H](O)C3CC3)cccc2c1Oc1ncccc1-c1ccnc(N[C@H]2CCCNC2)n1` (single isomer, unassigned) [Example 488, hydrochloride] it was 30 nM. In the case of `Cc1ccc2c(NCC3CC3(F)F)cccc2c1Oc1ncccc1-c1ccnc(N[C@H]2CCCNC2)n1` (mixture of isomers) [Example 341, 4-(2-((5-(((2,2-Difluorocyclopropyl)methyl)amino)-2-methylnaphthalen-1-yl)oxy)pyridin-3-yl)-N—((S)-piperidin-3-yl)pyrimidin-2-amine], the IC50 (Table 1) was 118 nM.

For the molecule `Cc1ccc2c(NS(=O)(=O)CC(C)C)c(F)ccc2c1Oc1ncccc1-c1ccnc(N[C@@H]2CNC[C@@H](F)C2)n1` (single isomer, unassigned) [Example 208], where the note is “Table 1”, the concentration for half-maximal inhibition (IC50) turned out to be 18.2 nM. Same read-out and setting: in the case of `Cc1ccc2c(NC(=O)[C@@H]3C[C@H]3C)cccc2c1Oc1ncccc1-c1ccnc(N[C@H]2CCCNC2)n1` [Example 232, (1R,2R)-2-Methyl-N-(6-methyl-5-((3-(2-(((S)-piperidin-3-yl)amino)pyrimidin-4-yl)pyridin-2-yl)oxy)naphthalen-1-yl)cyclopropane-1-carboxamide] it was 136 nM; in that of `CCCS(=O)(=O)Nc1cccc2c(Oc3ncc(CC)cc3-c3ccnc(N[C@H]4CCCNC4)n3)c(C)ccc12` [Example 259, (S)—N-(5-((5-ethyl-3-(2-(piperidin-3-ylamino)pyrimidin-4-yl)pyridin-2-yl)oxy)-6-methylnaphthalen-1-yl)propane-1-sulfonamide], 361 nM; in that of `Cc1ccc2c(NC(=O)[C@H]3CC34CCC4)cccc2c1Oc1ncccc1-c1ccnc(N[C@H]2CCCNC2)n1` (single isomer, unassigned) [Example 339], 137 nM. Same read-out and setting: in the case of `Cc1ccc2c(NC(=O)[C@@H]3CC3(C)C)cccc2c1Oc1ncccc1-c1ccnc(N[C@H]2CCCNC2)n1` (single isomer, unassigned) [Example 287] it was 39.4 nM.

As for `COCCCS(=O)(=O)Nc1c(F)ccc2c(Oc3ncccc3-c3ccnc(N[C@H]4CCCNC4)n3)c(C)ccc12` [Example 450, (S)—N-(2-Fluoro-6-methyl-5-((3-(2-(piperidin-3-ylamino)pyrimidin-4-yl)pyridin-2-yl)oxy)naphthalen-1-yl)-3-methoxypropane-1-sulfonamide hydrochloride], the IC50 (Table 2) was determined as 104 nM. On the same count and under the same terms, the same measure for `Cc1ccc2c(NC[C@H](O)C(C)C)cccc2c1Oc1ncccc1-c1ccnc(N[C@H]2CCCNC2)n1` (single isomer, unassigned) [Example 461, hydrochloride]: 42 nM. For `Cc1ccc2c(NC[C@H](O)c3ccccc3)cccc2c1Oc1ncccc1-c1ccnc(N[C@H]2CCCNC2)n1` [Example 309, (R)-2-((6-Methyl-5-((3-(2-((S)-piperidin-3-ylamino)pyrimidin-4-yl)pyridin-2-yl)oxy)naphthalen-1-yl)amino)-1-phenylethanol], the IC50 (Table 1) came to 433 nM. As for `Cc1nc(CNc2cccc3c(Oc4ncccc4-c4ccnc(N[C@H]5CCCNC5)n4)c(C)ccc23)cs1` [Example 244, (S)-4-(2-((2-Methyl-5-(((2-methylthiazol-4-yl)methyl)amino)naphthalen-1-yl)oxy)pyridin-3-yl)-N-(piperidin-3-yl)pyrimidin-2-amine], for the setting “Table 1”, the IC50 was found to be 12 nM. For `Cc1ccc2c(NC(=O)[C@@H]3CCCC3C)cccc2c1Oc1ncccc1-c1ccnc(N[C@H]2CCCNC2)n1` (single isomer, unassigned) [Example 373], the half-inhibitory concentration (IC50) (Table 1) came out at 193 nM. Consider `Cc1ccc2c(NCCC#N)cccc2c1Oc1ncccc1-c1ccnc(N[C@H]2CCCNC2)n1` [Example 329, (S)-3-((6-Methyl-5-((3-(2-(piperidin-3-ylamino)pyrimidin-4-yl)pyridin-2-yl)oxy)naphthalen-1-yl)amino)propanenitrile], for which the IC50 (Table 1) was 123 nM. With `Cc1ccc2c(NS(=O)(=O)Cc3ccccn3)cccc2c1Oc1ncccc1-c1ccnc(N[C@H]2CCCNC2)n1` [Example 126, (S)—N-(6-Methyl-5-((3-(2-(piperidin-3-ylamino)pyrimidin-4-yl)pyridin-2-yl)oxy)naphthalen-1-yl)-1-(pyridin-2-yl)methanesulfonamide hydrochloride], for the setting “Table 1”, the IC50 came out at 54 nM. Still for that read-out and setting: the same measure for `Cc1ccc2c(NS(=O)(=O)Cc3ccc(F)cc3F)cccc2c1Oc1ncccc1-c1ccnc(N[C@H]2CCCNC2)n1` [Example 157, (S)-1-(2,4-Difluorophenyl)-N-(6-methyl-5-((3-(2-(piperidin-3-ylamino)pyrimidin-4-yl)pyridin-2-yl)oxy)naphthalen-1-yl)methanesulfonamide]: 8 nM.

`CC[C@@H]1CCN(c2cccc3c(Oc4ncccc4-c4ccnc(N[C@@H]5CNC[C@H](C)C5)n4)c(C)ccc23)C1=O` (single isomer, unassigned) [Example 331]: for the setting “Table 1”, the IC50 worked out at 57.9 nM. In the case of `Cc1ccc2c(NS(=O)(=O)CCC(C)(F)F)c(F)ccc2c1Oc1ncccc1-c1ccnc(N[C@H]2CNC[C@H](F)C2)n1` (single isomer, unassigned) [Example 497, hydrochloride], for the setting “Table 2”, the 50% inhibitory concentration (IC50) was found to be 5100 nM.

On to `Cc1ccc2c(NS(=O)(=O)Cc3ccc(OC(F)(F)F)cc3)c(F)ccc2c1Oc1ncccc1-c1ccnc(N[C@H]2CCCNC2)n1` [Example 419, (S)—N-(2-Fluoro-6-methyl-5-((3-(2-(piperidin-3-ylamino)pyrimidin-4-yl)pyridin-2-yl)oxy)naphthalen-1-yl)-1-(4-(trifluoromethoxy)phenyl)methanesulfonamide hydrochloride], for which, for the setting “Table 2”, the half-maximal inhibitory concentration (IC50) is 129 nM.

In the case of `Cc1ccc2c(NCc3ccccn3)c(F)ccc2c1Oc1ncccc1-c1ccnc(N[C@H]2CCCNC2)n1` [Example 296, (S)-4-(2-((6-Fluoro-2-methyl-5-((pyridin-2-ylmethyl)amino)naphthalen-1-yl)oxy)pyridin-3-yl)-N-(piperidin-3-yl)pyrimidin-2-amine], the concentration for half-maximal inhibition (IC50) (Table 1) was found to be 220 nM.

Take `Cc1ccc2c(NC(=O)C3CC4(CCC4)C3)cccc2c1Oc1ncccc1-c1ccnc(N[C@H]2CCCNC2)n1` [Example 255, (S)—N-(6-Methyl-5-((3-(2-(piperidin-3-ylamino)pyrimidin-4-yl)pyridin-2-yl)oxy)naphthalen-1-yl)spiro[3.3]heptane-2-carboxamide]: the concentration for half-maximal inhibition (IC50) (Table 1) worked out at 182 nM. On to `Cc1ccc2c(NS(=O)(=O)CC3(F)CC3)c(F)ccc2c1Oc1ncccc1-c1ccnc(N[C@@H]2CNC[C@H](C)C2)n1` [Example 487, N-(2-Fluoro-6-methyl-5-((3-(2-(((3S,5R)-5-methylpiperidin-3-yl)amino)pyrimidin-4-yl)pyridin-2-yl)oxy)naphthalen-1-yl)-1-(1-fluorocyclopropyl)methanesulfonamide hydrochloride], for which, for the setting “Table 2”, the IC50 is 9 nM.

Regarding `CCC(C)C(=O)Nc1cccc2c(Oc3ncccc3-c3ccnc(N[C@H]4CCCNC4)n3)c(C)ccc12` (stereo partly drawn) [Example 182, 2-Methyl-N-(6-methyl-5-((3-(2-(((S)-piperidin-3-yl)amino)pyrimi-din-4-yl)pyridin-2-yl)oxy)naphthalen-1-yl)butanamide], the half-maximal inhibitory concentration (IC50) (Table 1) was 154 nM. The same measure, in the same setting: in the case of `Cc1cc(CNc2cccc3c(Oc4ncccc4-c4ccnc(N[C@H]5CCCNC5)n4)c(C)ccc23)no1` [Example 280, (S)-4-(2-((2-Methyl-5-(((5-methylisoxazol-3-yl)methyl)amino)naphthalen-1-yl)oxy)pyridin-3-yl)-N-(piperidin-3-yl)pyrimidin-2-amine] it was 134 nM; in that of `CCCS(=O)(=O)Nc1cccc2c(Oc3ncccc3-c3ccnc(N[C@H]4CCCNC4)n3)c(Cl)ccc12` [Example 181], 185 nM. On the same count and under the same terms, the same measure for `Cc1ccc2c(NC(=O)C3CC(F)(F)C3)cccc2c1Oc1ncccc1-c1ccnc(N[C@H]2CCCNC2)n1` [Example 219, (S)-3,3-Difluoro-N-(6-methyl-5-(3-(2-(piperidin-3-ylamino)pyrimidin-4-yl)pyridin-2-yloxy)naphthalen-1-yl)cyclobutanecarboxamide]: 119 nM; for `Cc1ccc2c(NC(=O)[C@@H]3CC34CCC4)c(F)ccc2c1Oc1ncccc1-c1ccnc(N[C@H]2CCCNC2)n1` (single isomer, unassigned) [Example 387]: 28.3 nM. As to `Cc1ccc2c(NS(=O)(=O)CCC(C)(F)F)c(F)ccc2c1Oc1ncccc1-c1ccnc(N[C@@H]2CNC[C@H](C)C2)n1` [Example 485, 3,3-Difluoro-N-[2-fluoro-6-methyl-5-[[3-[2-[[(3S,5R)-5-methyl-3-piperidyl]amino]pyrimidin-4-yl]-2-pyridyl]oxy]-1-naphthyl]butane-1-sulfonamide hydrochloride], the 50% inhibitory concentration (IC50) (Table 2) was 6 nM. With `Cc1ccc2c(NS(=O)(=O)CCC3CC3)c(F)ccc2c1Oc1ncccc1-c1ccnc(N[C@H]2CCCNC2)n1` [Example 399, (S)-2-Cyclopropyl-N-(2-fluoro-6-methyl-5-((3-(2-(piperidin-3-ylamino)pyrimidin-4-yl)pyridin-2-yl)oxy)naphthalen-1-yl)ethanesulfonamide hydrochloride], for the setting “Table 2”, the IC50 was determined as 72 nM.

Usually IC50 stands for the point on the concentration scale where inhibition reaches its midpoint.
